From patent US8748421B2, “Triazine compounds as P13 kinase and MTOR inhibitors” (Wyeth LLC, priority 2009, dated 2014)

Columns and labels:
[1] = tested on: acute lymphoblastic leukemia xenograft; conditions: NOS/SCID mouse; cited from earlier work
[2] = tested on: human tumor xenograft models; conditions: chronic oral administration, 400 mg/kg; A549, PC-3, WiDr; cited from earlier work
[3] = biological target: human SMG-1 (hSMG-1) (Homo sapiens, UniProt Q96Q15); experiment: hSMG-1 kinase assay (DELFIA); type: biochemical
[4] = biological target: PI3K-gamma (Homo sapiens, UniProt P48736); experiment: PI3K-gamma fluorescence polarization assay; conditions: read-out: IC50 PI3Kγ
PI3K-gamma, sequence (P48736 whole entry, species assumed): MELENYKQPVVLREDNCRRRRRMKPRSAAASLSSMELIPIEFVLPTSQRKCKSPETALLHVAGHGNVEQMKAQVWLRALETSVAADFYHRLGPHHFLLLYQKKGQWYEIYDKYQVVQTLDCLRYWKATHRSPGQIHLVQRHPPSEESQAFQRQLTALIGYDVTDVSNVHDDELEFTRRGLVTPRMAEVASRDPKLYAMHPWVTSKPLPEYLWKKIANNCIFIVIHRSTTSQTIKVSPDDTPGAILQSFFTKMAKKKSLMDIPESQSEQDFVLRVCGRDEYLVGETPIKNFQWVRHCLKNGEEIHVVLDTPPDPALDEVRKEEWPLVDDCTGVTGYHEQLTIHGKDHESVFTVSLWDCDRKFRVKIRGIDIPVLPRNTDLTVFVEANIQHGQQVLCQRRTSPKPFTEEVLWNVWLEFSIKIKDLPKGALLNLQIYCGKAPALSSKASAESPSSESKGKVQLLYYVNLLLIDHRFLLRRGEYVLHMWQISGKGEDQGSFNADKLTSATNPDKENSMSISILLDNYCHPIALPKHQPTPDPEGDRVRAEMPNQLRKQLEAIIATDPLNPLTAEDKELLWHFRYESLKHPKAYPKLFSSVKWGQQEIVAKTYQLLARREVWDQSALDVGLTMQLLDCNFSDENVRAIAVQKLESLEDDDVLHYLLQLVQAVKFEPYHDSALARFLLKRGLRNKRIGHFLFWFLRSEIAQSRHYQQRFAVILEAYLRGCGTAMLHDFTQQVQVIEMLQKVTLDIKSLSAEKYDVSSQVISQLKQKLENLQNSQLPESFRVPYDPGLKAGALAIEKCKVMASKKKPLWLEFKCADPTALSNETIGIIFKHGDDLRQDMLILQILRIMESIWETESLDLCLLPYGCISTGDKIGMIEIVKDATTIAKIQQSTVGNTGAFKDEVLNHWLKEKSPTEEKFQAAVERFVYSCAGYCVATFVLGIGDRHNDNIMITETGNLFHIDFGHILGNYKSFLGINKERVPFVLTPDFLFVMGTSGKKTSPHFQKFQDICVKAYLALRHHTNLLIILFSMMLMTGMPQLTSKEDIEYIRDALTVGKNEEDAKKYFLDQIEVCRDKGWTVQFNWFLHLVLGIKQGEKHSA

[5] = biological target: PI3K-alpha (Homo sapiens, UniProt P42336); experiment: PI3K-alpha fluorescence polarization assay; conditions: read-out: IC50 PI3Kα
PI3K-alpha, sequence (P42336 whole entry, species assumed): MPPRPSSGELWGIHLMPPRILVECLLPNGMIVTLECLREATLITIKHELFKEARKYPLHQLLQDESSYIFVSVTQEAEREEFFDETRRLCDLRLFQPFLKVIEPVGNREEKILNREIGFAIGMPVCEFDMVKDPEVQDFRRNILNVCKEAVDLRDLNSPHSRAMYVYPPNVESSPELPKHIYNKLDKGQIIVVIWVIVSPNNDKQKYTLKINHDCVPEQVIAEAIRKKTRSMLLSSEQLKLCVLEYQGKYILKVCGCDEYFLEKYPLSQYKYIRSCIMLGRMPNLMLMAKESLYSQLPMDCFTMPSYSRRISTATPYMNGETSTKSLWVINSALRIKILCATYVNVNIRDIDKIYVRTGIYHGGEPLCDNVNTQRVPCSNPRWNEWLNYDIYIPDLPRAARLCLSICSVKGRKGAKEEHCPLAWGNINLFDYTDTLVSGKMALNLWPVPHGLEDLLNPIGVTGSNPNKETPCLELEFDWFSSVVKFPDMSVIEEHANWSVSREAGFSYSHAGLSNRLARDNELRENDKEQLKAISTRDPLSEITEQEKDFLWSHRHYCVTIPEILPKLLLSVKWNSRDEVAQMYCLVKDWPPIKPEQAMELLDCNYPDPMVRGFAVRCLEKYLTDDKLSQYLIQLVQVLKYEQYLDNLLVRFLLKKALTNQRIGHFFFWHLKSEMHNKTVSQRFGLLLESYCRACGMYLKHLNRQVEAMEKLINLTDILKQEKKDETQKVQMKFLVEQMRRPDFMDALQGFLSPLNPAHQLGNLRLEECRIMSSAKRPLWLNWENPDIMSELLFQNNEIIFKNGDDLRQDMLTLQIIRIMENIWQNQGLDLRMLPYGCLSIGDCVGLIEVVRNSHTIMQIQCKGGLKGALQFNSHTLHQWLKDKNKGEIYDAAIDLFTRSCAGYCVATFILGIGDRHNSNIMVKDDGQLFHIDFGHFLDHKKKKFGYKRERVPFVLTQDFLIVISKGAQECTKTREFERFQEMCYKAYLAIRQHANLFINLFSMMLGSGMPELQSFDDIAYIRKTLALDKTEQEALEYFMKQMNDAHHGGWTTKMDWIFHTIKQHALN
PI3K-alpha, sequence (P27986 whole entry partner, species assumed): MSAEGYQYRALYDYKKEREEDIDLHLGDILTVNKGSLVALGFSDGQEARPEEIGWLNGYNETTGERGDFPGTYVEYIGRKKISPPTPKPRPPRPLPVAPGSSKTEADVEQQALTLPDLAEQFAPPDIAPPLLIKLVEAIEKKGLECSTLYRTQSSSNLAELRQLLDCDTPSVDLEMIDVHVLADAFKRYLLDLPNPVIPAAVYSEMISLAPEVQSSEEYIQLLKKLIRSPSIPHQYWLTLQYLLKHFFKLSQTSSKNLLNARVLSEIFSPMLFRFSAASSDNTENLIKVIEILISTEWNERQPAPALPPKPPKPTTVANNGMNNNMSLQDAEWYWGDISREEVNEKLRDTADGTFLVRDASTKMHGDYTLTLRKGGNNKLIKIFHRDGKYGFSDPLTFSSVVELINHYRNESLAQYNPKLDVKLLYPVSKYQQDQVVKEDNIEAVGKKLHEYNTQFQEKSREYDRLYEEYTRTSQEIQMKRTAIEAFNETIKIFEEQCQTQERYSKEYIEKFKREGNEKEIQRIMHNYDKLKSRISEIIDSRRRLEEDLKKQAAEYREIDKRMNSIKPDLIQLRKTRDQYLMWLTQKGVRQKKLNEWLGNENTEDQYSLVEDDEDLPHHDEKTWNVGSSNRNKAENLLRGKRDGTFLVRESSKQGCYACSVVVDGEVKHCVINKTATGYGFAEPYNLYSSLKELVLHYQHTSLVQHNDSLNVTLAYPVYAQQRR

[6] = tested on: human breast MDA-MB-361 tumor cell line; experiment: In vitro cell culture growth assay (MTS), MDA-MB-361; type: cell-based; conditions: 72 h, human breast MDA-MB-361 cells, three days after drug treatment
[7] = tested on: human prostate PC3-mm2 tumor cell line; experiment: In vitro cell culture growth assay (MTS), PC3-mm2; type: cell-based; conditions: PC3MM2, 72 h, human prostate PC3-mm2 cells, three days after drug treatment
[8] = tested on: human prostate LNCap tumor cell line; experiment: In vitro cell culture growth assay (MTS), LNCap; conditions: 72 h, read-out: IC50 LNCap

Compound	IC50 [4]	IC50 [5]	other results
CO[C@H]1C[C@@H]2CC[C@@H](C)[C@@](O)(O2)C(=O)C(=O)N2CCCC[C@H]2C(=O)O[C@H]([C@H](C)C[C@@H]2CC[C@@H](OC(=O)C(C)(CO)CO)[C@H](OC)C2)CC(=O)[C@H](C)/C=C(\C)[C@@H](O)[C@@H](OC)C(=O)[C@H](C)C[C@H](C)/C=C/C=C/C=C/1C [Torisel]			activity in xenograft mouse model of acute lymphoblastic leukemia [1]: active
FC(F)c1nc2ccccc2n1-c1nc(N2CCOCC2)nc(N2CCOCC2)n1 [ZSTK474, 2-(2-difluoromethylbenzoimidazol-1-yl)-4,6-dimorpholino-1,3,5-triazine]			tumor growth inhibition in mouse human xenograft cancer models [2]: completely inhibited growth
CNC(=O)Nc1ccc(-c2nc(-c3ccc(NC(=O)Nc4ccc(C(N)=O)cc4)cc3)nc(N3CCOCC3)n2)cc1 [Example 462, 4-({[4-(4-{4-[(methylcarbamoyl)amino]phenyl}-6-morpholin-4-yl-1,3,5-triazin-2-yl)phenyl]carbamoyl}amino)benzamide]			IC50 [3]: 1 nM
CCN(CC)CCOC(=O)c1ccc(NC(=O)Nc2ccc(-c3nc(N4CCOCC4)nc(N4C5CCC4COC5)n3)cc2)cc1 [Example 675, 2-(diethylamino)ethyl 4-[({4-[4-morpholin-4-yl-6-(3-oxa-8-azabicyclo[3.2.1]oct-8-yl)-1,3,5-triazin-2-yl]phenyl}carbamoyl)amino]benzoate]	136 nM	21 nM	
CC(C)N1CCCN(C(=O)c2ccc(NC(=O)Nc3ccc(-c4nc(N5CCOC[C@@H]5C)nc(N5CCOC[C@@H]5C)n4)cc3)cc2)CC1 [Example 838, 1-(4-{4,6-bis[(3S)-3-methylmorpholin-4-yl]-1,3,5-triazin-2-yl}phenyl)-3-(4-{[4-(1-methylethyl)-1,4-diazepan-1-yl]carbonyl}phenyl)urea]	24.5 nM	4.95 nM	
CC(C)N1CCCN(c2nc(-c3ccc(NC(=O)Nc4ccc(C(=O)N(C)CCN(C)C)cc4)cc3)nc(N3CCOCC3)n2)CC1 [Example 858, N-[2-(dimethylamino)ethyl]-N-methyl-4-{[(4-{4-(morpholin-4-yl)-6-[4-(propan-2-yl)-1,4-diazepan-1-yl]-1,3,5-triazin-2-yl}phenyl)carbamoyl]amino}benzamide]	134 nM	5 nM	
C[C@H]1CN(C(=O)c2ccc(NC(=O)Nc3ccc(-c4nc(C5CCOCC5)nc(N5CCOCC5)n4)cc3)cc2)CCN1 [Example 867, 1-(4-{[(3S)-3-methylpiperazin-1-yl]carbonyl}phenyl)-3-{4-[4-(morpholin-4-yl)-6-(tetrahydro-2H-pyran-4-yl)-1,3,5-triazin-2-yl]phenyl}urea]	7 nM	0.4 nM	
CN(C)CCNC(=O)c1ccc(NC(=O)Nc2ccc(-c3nc(N4CCCCC4)nc(N4CCOCC4)n3)cc2)cc1 [Example 601, N-[2-(dimethylamino)ethyl]-4-({[4-(4-morpholin-4-yl-6-piperidin-1-yl-1,3,5-triazin-2-yl)phenyl]carbamoyl}amino)benzamide]			IC50 [6]: 22 nM; IC50 [7]: 155 nM
CNC(=O)Nc1ccc(-c2nc(-c3ccc(NC(=O)Nc4cccc(C(N)=O)c4)cc3)nc(N3CCOCC3)n2)cc1 [Example 466, 3-({[4-(4-{4-[(methylcarbamoyl)amino]phenyl}-6-morpholin-4-yl-1,3,5-triazin-2-yl)phenyl]carbamoyl}amino)benzamide]			IC50 [8]: 420 nM
CC(C)N1CCCN(c2nc(-c3ccc(NC(=O)Nc4ccc(C(=O)N5CCNCC5)cc4)cc3)nc(N3CCOCC3)n2)CC1 [Example 846, 1-(4-{4-(morpholin-4-yl)-6-[4-(propan-2-yl)-1,4-diazepan-1-yl]-1,3,5-triazin-2-yl}phenyl)-3-[4-(piperazin-1-ylcarbonyl)phenyl]urea]	22.5 nM	3.5 nM	
C[C@@H]1CN(C(=O)c2ccc(NC(=O)Nc3ccc(-c4nc(N5CCOCC5)nc(N5CCOCC5)n4)cc3)cc2)CCN1 [Example 849, 1-{4-[4,6-di(morpholin-4-yl)-1,3,5-triazin-2-yl]phenyl}-3-(4-{[(3R)-3-methylpiperazin-1-yl]carbonyl}phenyl)urea]	3.17 nM	0.3 nM	
C[C@H]1CN(C(=O)c2ccc(NC(=O)Nc3ccc(-c4nc(C5CCOCC5)nc(N5CCOCC5)n4)cc3)cc2)CCN1C [Example 866, 1-(4-{[(3S)-3,4-dimethylpiperazin-1-yl]carbonyl}phenyl)-3-{4-[4-(morpholin-4-yl)-6-(tetrahydro-2H-pyran-4-yl)-1,3,5-triazin-2-yl]phenyl}urea]	16.5 nM	1.6 nM	

Further lines, with some results ahead:

IC50 [4]	IC50 [5]	Compound	other results
240 nM	17.9 nM	CC(C)N1CCCN(c2nc(-c3ccc(NC(=O)Nc4ccc(C(=O)N5CCOCC5)cc4)cc3)nc(N3CCOCC3)n2)CC1 [Example 859, 1-[4-(morpholin-4-ylcarbonyl)phenyl]-3-(4-{4-(morpholin-4-yl)-6-[4-(propan-2-yl)-1,4-diazepan-1-yl]-1,3,5-triazin-2-yl}phenyl)urea]	
75 nM	11.9 nM	CC(=O)NC1CCN(C(=O)c2ccc(NC(=O)Nc3ccc(-c4nc(N5CCOC[C@@H]5C)nc(N5CCOC[C@@H]5C)n4)cc3)cc2)CC1 [Example 837, N-{1-[(4-{[(4-{4,6-bis[(3S)-3-methylmorpholin-4-yl]-1,3,5-triazin-2-yl}phenyl)carbamoyl]amino}phenyl)carbonyl]piperidin-4-yl}acetamide]	
238 nM	21 nM	CC(C)N1CCCN(c2nc(-c3ccc(NC(=O)Nc4ccc(C(=O)N5CC[C@@H](N(C)C)C5)cc4)cc3)nc(N3CCOCC3)n2)CC1 [Example 844, 1-(4-{[(3R)-3-(dimethylamino)pyrrolidin-1-yl]carbonyl}phenyl)-3-(4-{4-(morpholin-4-yl)-6-[4-(propan-2-yl)-1,4-diazepan-1-yl]-1,3,5-triazin-2-yl}phenyl)urea]	
17.5 nM	5 nM	CC(C)NC(=O)N1CC(Oc2nc(-c3ccc(NC(=O)Nc4ccncc4)cc3)nc(N3CCOCC3)n2)C1 [Example 836, N-(1-methylethyl)-3-[(4-morpholin-4-yl-6-{4-[(pyridin-4-ylcarbamoyl)amino]phenyl}-1,3,5-triazin-2-yl)oxy]azetidine-1-carboxamide]	
8.25 nM	2.58 nM	CC(C)N1CCN(C(=O)c2ccc(NC(=O)Nc3ccc(-c4nc(C5CCOCC5)nc(N5CCOCC5)n4)cc3)cc2)CC1 [Example 833, 1-(4-{[4-(1-methylethyl)piperazin-1-yl]carbonyl}phenyl)-3-{4-[4-morpholin-4-yl-6-(tetrahydro-2H-pyran-4-yl)-1,3,5-triazin-2-yl]phenyl}urea]	
6.1 nM	0.65 nM	C[C@@H]1CN(C(=O)c2ccc(NC(=O)Nc3ccc(-c4nc(N5CCOCC5)nc(N5CCOCC5)n4)cc3)cc2)CCN1C [Example 850, 1-(4-{[(3R)-3,4-dimethylpiperazin-1-yl]carbonyl}phenyl)-3-{4-[4,6-di(morpholin-4-yl)-1,3,5-triazin-2-yl]phenyl}urea]	
5.55 nM	0.4 nM	CC(C)N1CCN(C(=O)c2ccc(NC(=O)Nc3ccc(-c4nc(N5CCOCC5)nc(N5CCOCC5)n4)cc3)cc2)C[C@H]1C [Example 852, 1-{4-[4,6-di(morpholin-4-yl)-1,3,5-triazin-2-yl]phenyl}-3-(4-{[(3R)-3-methyl-4-(propan-2-yl)piperazin-1-yl]carbonyl}phenyl)urea]	
54.5 nM	3.55 nM	C[C@H]1COCCN1c1nc(-c2ccc(NC(=O)Nc3ccc(C(=O)N4CC[C@@H](N(C)C)C4)cc3)cc2)nc(N2CCOC[C@@H]2C)n1 [Example 842, 1-(4-{4,6-bis[(3S)-3-methylmorpholin-4-yl]-1,3,5-triazin-2-yl}phenyl)-3-(4-{[(3R)-3-(dimethylamino)pyrrolidin-1-yl]carbonyl}phenyl)urea]	
4.5 nM	0.65 nM	CN(C)[C@@H]1CCN(C(=O)c2ccc(NC(=O)Nc3ccc(-c4nc(C5CCOCC5)nc(N5CCOCC5)n4)cc3)cc2)C1 [Example 868, 1-(4-{[(3R)-3-(dimethylamino)pyrrolidin-1-yl]carbonyl}phenyl)-3-{4-[4-morpholin-4-yl-6-(tetrahydro-2H-pyran-4-yl)-1,3,5-triazin-2-yl]phenyl}urea]	
164 nM	8.84 nM	CC(C)N1CCCN(c2nc(-c3ccc(NC(=O)Nc4ccc(C(=O)N(C)CCN(C)C)cc4)cc3)nc(N3CCOC[C@@H]3C)n2)CC1 [Example 854, N-[2-(dimethylamino)ethyl]-N-methyl-4-{[(4-{4-[(3S)-3-methylmorpholin-4-yl]-6-[4-(propan-2-yl)-1,4-diazepan-1-yl]-1,3,5-triazin-2-yl}phenyl)carbamoyl]amino}benzamide]	
5.05 nM	0.3 nM	C[C@H]1CN(C(=O)c2ccc(NC(=O)Nc3ccc(-c4nc(N5CCOCC5)nc(N5CCOCC5)n4)cc3)cc2)CCN1 [Example 853, 1-{4-[4,6-di(morpholin-4-yl)-1,3,5-triazin-2-yl]phenyl}-3-(4-{[(3S)-3-methylpiperazin-1-yl]carbonyl}phenyl)urea]	
